These results are taken from patent US8378117B2 (priority 2005, dated 2013).

Where two headings read alike, the source gives them in different places.

One assay concerns the target T1, CB2 receptor (Homo sapiens, UniProt P34972).
T1 construct: expressed in transfected cells
Kind of assay: Binding assay for CB2 agonists or inverse agonists (SK-N-MC membranes, [3H]-CP-55,940). The conditions noted are these: for CB2 receptor binding percent inhibition: test concentration not stated. The method, then:
(§1) The human CB1 and CB2 receptors were stably expressed in SK-N-MC cells transfected with pcDNA3 CB-1 (human) or pcDNA3 CB-2 (human). The cells were grown in T-180 cell culture flasks under standard cell culture conditions at 37° C. in a 5% CO2 atmosphere. The cells were harvested by trysinization and homogenized in a homogenization buffer (10 mM Tris, 0.2 mM MgCl2, 5 mM KCl, with protease inhibitors aprotinin, leupeptin, pepstatin A and bacitracin) and centrifuged (2000 g). The supernatant was then centrifuged in 2M sucrose (31,300 g) to produce a semi-purified membrane pellet. The pellet was resuspended in homogenization and stored at −80° C.
On the day of the assay, the pellet was thawed on ice and diluted in assay buffer (50 mM Tris-HCl, 5 mM MgCl2, 2.5 mM EDTA, 0.5 mg/mL fatty acid free bovine serum aldumin, pH 7.5). […] The plate was covered and incubated for 90 minutes at 30° C. The contents were then aspirated onto a Packard Unifilter GF/C filter bottom plate prewet with 0.5% polyethyleneimine. The wells of the polypropylene plate were rinsed and aspirated seven times with a 0.9% saline-0.5% Tween 20 solution. The Unifilter plate was dried, a scintillation cocktail was added to each well and the counts representing binding were quantitated in a TopCount scintillation counter.
(§2) For compounds tested, an IC50 binding value was obtained from percent inhibition studies in which various test concentrations were used. The binding value was calculated by linear regression.

The next assay concerns the target T2, CB1 receptor (Homo sapiens, UniProt P21554).
T2 construct: expressed in transfected cells
Briefly: Binding assay for CB1 agonists or inverse agonists (SK-N-MC membranes, [3H]-CP-55,940). The conditions noted are these: for CB1 receptor binding average percent inhibition: value shown is an average percent inhibition (footnote 5), concentration not given; for inhibition at 1 µM: read-out: CB1 receptor binding percent inhibition, test concentration 1 μM (footnote 1); for inhibition at 0.2 µM: read-out: CB1 receptor binding percent inhibition, test concentration 0.2 μM (footnote 2). As to the method: as §1
On the day of the assay, the pellet was thawed on ice and diluted in assay buffer (50 mM Tris-HCl, 5 mM MgCl2, 2.5 mM EDTA, 0.5 mg/mL fatty acid free bovine serum aldumin, pH 7.5). The diluted membrane pellet was added with buffer, either a test compound or vehicle standard and the radioligand […] ([…]) to the wells of a 96-well polypropylene plate. Non-specific binding was measured in wells containing WIN 55,212 (10 uM). The plate was covered and incubated for 90 minutes at 30° C. The contents were then aspirated onto a Packard Unifilter GF/C filter bottom plate prewet with 0.5% polyethyleneimine. The wells of the polypropylene plate were rinsed and aspirated seven times with a 0.9% saline-0.5% Tween 20 solution. The Unifilter plate was dried, a scintillation cocktail was added to each well and the counts representing binding were quantitated in a TopCount scintillation counter.
as §2

[1] abbreviates: test concentration 0.2 μM (footnote 2), read-out: CB2 receptor binding percent inhibition.

T1 sequence (P34972 whole entry): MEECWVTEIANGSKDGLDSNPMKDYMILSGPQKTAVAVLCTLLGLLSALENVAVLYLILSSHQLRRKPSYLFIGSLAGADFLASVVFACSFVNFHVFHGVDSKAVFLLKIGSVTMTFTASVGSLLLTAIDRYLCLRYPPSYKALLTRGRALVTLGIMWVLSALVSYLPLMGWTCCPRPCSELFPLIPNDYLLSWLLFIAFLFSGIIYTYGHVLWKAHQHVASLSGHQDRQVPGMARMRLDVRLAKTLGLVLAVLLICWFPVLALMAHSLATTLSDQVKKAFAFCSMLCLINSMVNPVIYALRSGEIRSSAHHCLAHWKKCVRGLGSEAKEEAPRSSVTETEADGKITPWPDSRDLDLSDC
T2 sequence (P21554 whole entry): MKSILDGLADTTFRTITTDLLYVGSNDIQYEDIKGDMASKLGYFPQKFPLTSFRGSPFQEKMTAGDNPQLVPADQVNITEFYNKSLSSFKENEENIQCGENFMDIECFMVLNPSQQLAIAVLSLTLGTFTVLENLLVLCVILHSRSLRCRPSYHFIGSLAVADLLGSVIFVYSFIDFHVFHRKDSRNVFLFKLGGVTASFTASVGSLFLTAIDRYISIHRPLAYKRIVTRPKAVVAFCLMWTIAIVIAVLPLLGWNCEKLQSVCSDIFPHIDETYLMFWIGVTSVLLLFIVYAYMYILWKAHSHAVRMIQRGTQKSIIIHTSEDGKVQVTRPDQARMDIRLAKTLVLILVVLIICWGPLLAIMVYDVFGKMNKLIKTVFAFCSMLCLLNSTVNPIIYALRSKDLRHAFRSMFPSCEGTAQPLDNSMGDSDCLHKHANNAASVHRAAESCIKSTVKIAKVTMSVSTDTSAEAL

In the case of `CC12CCC(C1)C(C)(C)[C@H]2NC(=O)c1nn(-c2ccc(Cl)cc2Cl)c2c1CCCCC2Cc1ccc(F)cc1` (stereo partly drawn) [Cpd 71, 1-(2,4-dichloro-phenyl)-8-(4-fluoro-benzyl)-1,4,5,6,7,8-hexahydro-cycloheptapyrazole-3-carboxylic acid [(2S)-1,3,3-trimethyl-bicyclo[2.2.1]hept-2-yl]-amide], the “CB2 receptor binding percent inhibition” value on CB2 receptor is 32%. The “CB1 receptor binding average percent inhibition” value at CB1 receptor is “^(5)43%”.

With `COC(=O)[C@H](Cc1ccc(F)cc1)NC(=O)c1nn(C2CCCCC2)c2c1CCCCC2Cc1ccc(F)cc1` (stereo partly drawn) [Cpd 63, (2S)-2-{[1-cyclohexyl-8-(4-fluoro-benzyl)-1,4,5,6,7,8-hexahydro-cycloheptapyrazole-3-carbonyl]-amino}-3-(4-fluoro-phenyl)-propionic acid methyl ester], the “CB2 receptor binding percent inhibition” value on CB2 receptor worked out at 69%. Further, the inhibition at 1 µM on CB1 receptor stood at 29%.

Regarding `O=C(NC1CCC1)c1nn(C2CCCCC2)c2c1CCCCC2Cc1ccc(Cl)cc1` (centres unmarked) [Cpd 37, 8-(4-chloro-benzyl)-1-cyclohexyl-1,4,5,6,7,8-hexahydro-cycloheptapyrazole-3-carboxylic acid cyclobutylamide], at CB2 receptor, the “CB2 receptor binding percent inhibition” value was 10%. The inhibition at 1 µM on CB1 receptor turned out to be 15%.

Regarding `Cn1nc(C(=O)n2ccnc2)c2c1/C(=C/c1cccc(F)c1)CCCC2` [Cpd 243, (8E)-[8-(3-fluoro-benzylidene)-1-methyl-1,4,5,6,7,8-hexahydro-cycloheptapyrazol-3-yl]-imidazol-1-yl-methanone], the inhibition at 0.2 µM at CB2 receptor (setting [1]) and on CB1 receptor was 0% in each case.

Take `C[C@H](NC(=O)c1nn(-c2ccccc2Cl)c2c1CCCC/C2=C\c1ccc(Cl)cc1)C1CCCCC1` [Cpd 192, (8E)-8-(4-chloro-benzylidene)-1-(2-chloro-phenyl)-1,4,5,6,7,8-hexahydro-cycloheptapyrazole-3-carboxylic acid [(1S)-1-cyclohexyl-ethyl]-amide]: the inhibition at 0.2 µM is 7% on CB2 receptor (read-out: CB2 receptor binding percent inhibition, test concentration 0.2 μM (footnote 2)) and 45% at CB1 receptor.

Regarding `O=C(NC1CCC1)c1nn(Cc2ccc(Cl)cc2)c2c1CCCCC2Cc1cccc(Cl)c1` (centres unmarked) [Cpd 29, 1-(4-chloro-benzyl)-8-(3-chloro-benzyl)-1,4,5,6,7,8-hexahydro-cycloheptapyrazole-3-carboxylic acid cyclobutylamide], the “CB2 receptor binding percent inhibition” value at CB2 receptor turned out to be 18%. Further, the inhibition at 1 µM on CB1 receptor is 13%.

Regarding `CC(C)[C@@H](CO)NC(=O)c1nn(-c2ccc(Cl)cc2Cl)c2c1CCCC[C@H]2Cc1cccc(Cl)c1` [Cpd 159, (8S)-8-(3-chloro-benzyl)-1-(2,4-dichloro-phenyl)-1,4,5,6,7,8-hexahydro-cycloheptapyrazole-3-carboxylic acid [(1S)-1-hydroxymethyl-2-methyl-propyl]-amide], the inhibition at 0.2 µM is 3% on CB2 receptor (setting [1]) and 40% at CB1 receptor.

On to `Cn1nc(/C=C/S(=O)(=O)NN2CCOCC2)c2c1C(Cc1ccc(F)cc1)CCCC2` (centres unmarked) [Cpd 126, (2E)-2-[8-(4-fluoro-benzyl)-1-methyl-1,4,5,6,7,8-hexahydro-cycloheptapyrazol-3-yl]-ethenesulfonic acid morpholin-4-ylamide], for which the “CB2 receptor binding percent inhibition” value on CB2 receptor is on record as 65%. Moreover, the inhibition at 1 µM at CB1 receptor came out at 0%.

Take `O=C(NN1CCOCC1)c1nn(C2CCCCC2)c2c1CCCCC2Cc1cccc(F)c1` (centres unmarked) [Cpd 90, 1-cyclohexyl-8-(3-fluoro-benzyl)-1,4,5,6,7,8-hexahydro-cycloheptapyrazole-3-carboxylic acid morpholin-4-ylamide]: on CB2 receptor, the “CB2 receptor binding percent inhibition” value was 2%. Moreover, on CB1 receptor, the inhibition at 1 µM is 1%.

Turning to `O=C(N[C@@H](CO)c1ccccc1)c1nn(-c2nccc(C(F)(F)F)n2)c2c1CCCCC2Cc1cccc(Cl)c1` (stereo partly drawn) [Cpd 176, 8-(3-chloro-benzyl)-1-(4-trifluoromethyl-pyrimidin-2-yl)-1,4,5,6,7,8-hexahydro-cycloheptapyrazole-3-carboxylic acid [(1R)-2-hydroxy-1-phenyl-ethyl]-amide], the inhibition at 0.2 µM at CB2 receptor (setting [1]) came out at 43%; on CB1 receptor, 4%.

As to `O=C(Nc1ccncc1)c1nn(-c2ccc(Cl)cc2Cl)c2c1CCCC/C2=C\c1ccc(Cl)cc1` [Cpd 153, (8E)-8-(4-chloro-benzylidene)-1-(2,4-dichloro-phenyl)-1,4,5,6,7,8-hexahydro-cycloheptapyrazole-3-carboxylic acid pyridin-4-ylamide], the inhibition at 0.2 µM on CB2 receptor (setting [1]) came out at 0%; on CB1 receptor, 44%.

In the case of `COC(=O)[C@@H](Cc1ccc(O)cc1)NC(=O)c1nn(-c2ccc(F)cc2F)c2c1CCCCC2Cc1ccc(F)cc1` (stereo partly drawn) [Cpd 98, (2R)-2-{[1-(2,4-difluoro-phenyl)-8-(4-fluoro-benzyl)-1,4,5,6,7,8-hexahydro-cycloheptapyrazole-3-carbonyl]-amino}-3-(4-hydroxy-phenyl)-propionic acid methyl ester], the “CB2 receptor binding percent inhibition” value at CB2 receptor stood at 43%. Also, the inhibition at 1 µM at CB1 receptor was 51%.

On to `O=C(NC12CC3CC(CC(C3)C1)C2)c1nn(-c2ccc(Cl)cc2Cl)c2c1CCCCC2Cc1cccc(Cl)c1` (centres unmarked) [Cpd 22, 8-(3-chloro-benzyl)-1-(2,4-dichloro-phenyl)-1,4,5,6,7,8-hexahydro-cycloheptapyrazole-3-carboxylic acid adamantan-1-ylamide], for which the “CB2 receptor binding percent inhibition” value on CB2 receptor is 25%. Besides, at CB1 receptor, the inhibition at 1 µM stood at 58%.

Consider `CC12CCC(C1)C(C)(C)[C@H]2NC(=O)c1nn(C2CCCCC2)c2c1CCCCC2Cc1ccc(Cl)cc1` (stereo partly drawn) [Cpd 2, 8-(4-chloro-benzyl)-1-cyclohexyl-1,4,5,6,7,8-hexahydro-cycloheptapyrazole-3-carboxylic acid [(2S)-1,3,3-trimethyl-bicyclo[2.2.1]hept-2-yl]-amide], for which the “CB2 receptor binding percent inhibition” value on CB2 receptor is 53%. Besides, the inhibition at 1 µM at CB1 receptor came out at 21%.

For the compound `C[C@H](NS(=O)(=O)/C=C/c1nn(C)c2c1CCCCC2Cc1ccc(F)cc1)c1ccccc1` (stereo partly drawn) [Cpd 101, (2E)-2-[8-(4-fluoro-benzyl)-1-methyl-1,4,5,6,7,8-hexahydro-cycloheptapyrazol-3-yl]-ethenesulfonic acid [(1S)-1-phenyl-ethyl]-amide], the IC50 (in general, the concentration needed to halve the response being measured) on CB2 receptor (Cannabinoid CB2 Receptor Binding IC50, calculated by linear regression from percent inhibition at various test concentrations) is 40 nM. Moreover, the inhibition at 1 µM worked out at 97% on CB2 receptor (test concentration 1 μM (footnote 1), read-out: CB2 receptor binding percent inhibition) and 28% at CB1 receptor.

On to `O=C(NC1CCC1)c1nn(-c2ccc(Cl)cc2Cl)c2c1CCCCC2Cc1ccc(F)cc1` (centres unmarked) [Cpd 70, 1-(2,4-dichloro-phenyl)-8-(4-fluoro-benzyl)-1,4,5,6,7,8-hexahydro-cycloheptapyrazole-3-carboxylic acid cyclobutylamide], for which the “CB2 receptor binding percent inhibition” value on CB2 receptor worked out at 3%. Further, the “CB1 receptor binding average percent inhibition” value at CB1 receptor was “^(5)37%”.

Regarding `O=C(NN1CCCCC1)c1nn(-c2ccncc2)c2c1CCCC/C2=C\c1ccc(Cl)cc1` [Cpd 182, (8E)-8-(4-chloro-benzylidene)-1-pyridin-4-yl-1,4,5,6,7,8-hexahydro-cycloheptapyrazole-3-carboxylic acid piperidin-1-ylamide], the inhibition at 0.2 µM was determined as 31% at CB2 receptor (setting [1]) and 21% on CB1 receptor.

With `C[C@H](NC(=O)c1nn(C2CCCCC2)c2c1CCCCC2Cc1ccc(Cl)cc1)c1ccccc1` (stereo partly drawn) [Cpd 5, 8-(4-chloro-benzyl)-1-cyclohexyl-1,4,5,6,7,8-hexahydro-cycloheptapyrazole-3-carboxylic acid [(1S)-1-phenyl-ethyl]-amide], at CB2 receptor, the “CB2 receptor binding percent inhibition” value amounted to 34%. Moreover, on CB1 receptor, the inhibition at 1 µM is 22%.

`O=C(NN1CCCCC1)c1nn(C2CCCCC2)c2c1CCCCC2Cc1ccc(F)cc1` (centres unmarked) [Cpd 62, 1-cyclohexyl-8-(4-fluoro-benzyl)-1,4,5,6,7,8-hexahydro-cycloheptapyrazole-3-carboxylic acid piperidin-1-ylamide]: at CB2 receptor, the “CB2 receptor binding percent inhibition” value was 5%. In addition, the inhibition at 1 µM at CB1 receptor was 5%.

As for `O=C(N[C@@H](CO)c1ccccc1)c1nn(C2CCCCC2)c2c1CCCCC2Cc1ccc(F)cc1` (stereo in doubt) [Cpd 67, (8S*)-1-cyclohexyl-8-(4-fluoro-benzyl)-1,4,5,6,7,8-hexahydro-cycloheptapyrazole-3-carboxylic acid [(1R)-2-hydroxy-1-phenyl-ethyl]-amide], the “CB2 receptor binding percent inhibition” value on CB2 receptor is 55%. Moreover, the inhibition at 1 µM on CB1 receptor came to 44%.
